This experiment relates to penile tissue (corpus cavernosum strips). Nature of the experiment: In vitro relaxation of penile tissue strips in physiological organ bath after induced contraction. Also noted: species or system New Zealand rabbit and albino rats. The source says:
A water-jacketed physiological organ bath provides a stable and adjustable way of organ stability and temperature control. Substrates and other nutrients that are required to sustain tissue function were provided via a physiological solution (e.g., Krebs solution). This will allowed the study of evoked tissue responses to pharmacological agents and/or electrical stimulation.
Penile tissues from a mature New Zealand rabbit (e.g., 3-3.5 kg) and albino rats (e.g., 300-350 g) were dissected out and cleaned of the outer adherent connective tissue, and the two corpora cavernosa integral tissues were obtained. Each corpus cavernosum was cut lengthwise into 4 pieces measuring about 2 mm thick and 10-12 mm long out of which a 7-8 mm long piece was taken from the middle part of each strip by removing the two unwanted edges of these strips. The strips were kept in a well oxygenated Krebs solution, pre-cooled to 4° C., and placed in a refrigerator until the initiation of the experiment.
Each erectile tissue (“ET”) was mounted by clipping both of its ends within the bath. An ET strip was hooked to one clip end, which was tied to a metal wire (e.g., mounting hook), which was fixed to a bottom of a water-jacketed chamber. The top end of the strip was clipped to a cotton thread and connected to a lever (e.g., arm), which was connected to a Harvard isotonic transducer. The former was connected to a Harvard Universal Oscillograph for recording the force of contraction to an isotonic transducer. The tissue strip was stretched against a fixed caliber weight of 2 gm attached to the lever of the isotonic transducer. The free movable lever end was horizontally adjusted receptive to any movement according to the contraction and relaxation of the ET within the path when stimulated. Before each experiment, the transducer was calibrated two times against this caliber weight. The bath into which the tissue was mounted contained 25 ml of oxygenated Krebs solution with continuous oxygenation (gas mixture of 95% O2 and 5% CO2 and at 37° C.) and left for 60 minutes before starting the experiment.
Certain specifications for collection of Orchis anatolica plants were adopted so that the intact roots together with the potato-shaped bulb parts were collected and preserved intact. Bulbs were detached from roots and left to dry at air temperature, and then separated into two categories: a large rounded sized bulb resembling the small sized potato (male bulb) and an elongated small sized bulb (female or feeding bulb). The round potato shaped bulb was chopped and grinded using an electrical grinder until a powder was obtained. Each 500 g of dried and grinded orchis roots was then refluxed in (2 L) 70% ethanol at 50° C. for 36 hours in a continuous extraction (soxhlet) apparatus. Ethanol extract was filtered and concentrated under reduced pressure at 50° C. using a rotary evaporator. Red Korean Panax Ginseng was obtained from a South Korea market as a concentrated powder vacuumed and sealed in metal container packages of 50 g (commercially obtained from KOREAEXPORT CO LTD). Powder was dissolved well in distilled water from which different concentrations were used. Different doses of both Orchis anatolica extract and Red Korean Panax Ginseng were used to obtain and determine the maximum effect of ET response.
A 1 liter Krebs stock solution was prepared the day before the experiment containing the following chemicals: NaCl (125 mM), NaHCO3 (20 mM), KCl (4 mM), NaH2PO4 (1.8 mM), MgSO4 (1.8 mM), CaCl2 (1.8 mM), glucose (10 mM), and HEPES buffer (10 mM) (see Table 1). For a final 1 liter Krebs solution, 725 ml ringer and […] Deionized water were added. The solution pH was set to 7.4 after gassing with 95% O2/5% CO2 for 30 minutes before it was used. Krebs solutions were freshly prepared on each experimental day from the stock solutions stored in the refrigerator. […]

As for `CNC[C@H](O)c1cccc(O)c1` [L-Phenylephrine], the “Time dependent penile tissue contraction (−) and relaxation (+) response to treatment” value (“Time dependent penile tissue contraction” for short) (5 minutes, 0.0509 gm stock solution) is given as −6.8%^; the “Time dependent penile tissue contraction” value (10 minutes, 0.0509 gm stock solution) is −8.2%^; the “Time dependent penile tissue contraction” value (15 minutes, 0.0509 gm stock solution) is recorded as −9.5%^; the “Time dependent penile tissue contraction” value (20 minutes, 0.0509 gm stock solution) is reported as −10%; the “Time dependent penile tissue contraction” value (25 minutes, 0.0509 gm stock solution) is −10%.
For `CCCc1nn(C)c2c(=O)[nH]c(-c3cc(S(=O)(=O)N4CCN(C)CC4)ccc3OCC)nc12` [Sildenafil], the “Time dependent penile tissue contraction” value reads like this: (5 minutes, 0.002 g/50 ml Krebs, after phenylephrine contraction) 11%; (15 minutes, 0.002 g/50 ml Krebs, after phenylephrine contraction) 12%; (25 minutes, 0.002 g/50 ml Krebs, after phenylephrine contraction) 24%.

The record behind these values is US11026989B2, “Composition for treating erectile dysfunction by Orchis anatolica extract” (Jordan University of Science and Technology, priority 2016, dated 2021).
